The values that follow come from BindingDB's records for doi:10.1007/s10822-022-00478-x (Roche Innovation Center Basel, F. Hoffmann-La Roche Ltd., 2022).

This test has as its target cAMP and cAMP-inhibited cGMP 3',5'-cyclic phosphodiesterase 10A (Homo sapiens, UniProt Q9Y233). The experiment in a line: PDE10A assay. In a few lines:
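Scintillation proximity readout of [3H]cGMP hydrolysis (50 nM final substrate, 15 min) by 2 ng/well human PDE10A after 15 min compound preincubation at RT, pH 7.5 with MgCl2. Four-parameter logistic fit gave IC50, reported as pIC50.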
The compound `CN(C)C(=O)c1nn(-c2ccccn2)cc1NC(=O)c1nc(C2CC2)ccc1Nc1cncnc1` [US8703768, 74] yielded an IC50 of 0.00678 µM.

Compound `CC(C)(C)CCNC(=O)c1nc(C2CC2)cnc1Nc1cncnc1` [Roche-Dataset for PDE10A, Compound 1022] registered an IC50 of 2.34 µM. For `Cc1c(Cl)cc(C(F)(F)F)c2nc(/C=C/c3nc(N4CCCC4)nn3C)nn12` [Roche-Dataset for PDE10A, Compound 154] the value was 0.00274 µM. The compound `Cc1ncn(C)c1C(=O)Nc1cc(-c2ccccn2)nn1C` [Roche-Dataset for PDE10A, Compound 772] yielded an IC50 of 10 µM. Then `O=C(NCC1CCOCC1)c1nc(C2CC2)cnc1Nc1cncnc1` [Roche-Dataset for PDE10A, Compound 988], with 5.78 µM.

`Cc1cccc(-c2cn3c(n2)C[C@H](NC(=O)c2c(C(=O)N(C)C4CC4)cnn2C)CC3)c1` [Roche-Dataset for PDE10A, Compound 114] returned an IC50 of 0.00853 µM. For `CC(=O)N1CC(C)(C)c2ccc(NC(=O)c3nc(C4CC4)cnc3Nc3cncnc3)cc21` [Roche-Dataset for PDE10A, Compound 952] the value was 0.00764 µM; for `CN(CCNC(=O)c1nc(C2CC2)cnc1Nc1cncnc1)C(=O)c1ccccn1` [Roche-Dataset for PDE10A, Compound 581], 10 µM; for `Cc1cccc(-c2cn3c(n2)C[C@H](NC(=O)c2c(C(=O)N(C)C)cnn2C)CC3)c1` [Roche-Dataset for PDE10A, Compound 241], 0.034 µM.

In turn, `O=C(NCC1(c2ccccc2)CCOCC1)c1nc(C2CC2)cnc1Nc1cncnc1` [Roche-Dataset for PDE10A, Compound 924] gave an IC50 of 1.16 µM. Then `Cc1nc2nc(CCc3nc(-c4ccccc4)cn3C)[nH]c(=O)c2n1C` [Roche-Dataset for PDE10A, Compound 687], with 0.331 µM; and `O=C(NCc1cccc(F)c1)c1nc(C2CC2)cnc1Nc1cncnc1` [Roche-Dataset for PDE10A, Compound 837], with 0.499 µM. Then `Cc1c(C(F)F)nc2ccc(CCc3nc(-c4ccccc4)cn3C)nn12` [US10399985, Example 19], with 0.0056 µM; and `O=C(Nc1cccc(N2CCCC2=O)c1)c1nc(C2CC2)cnc1Nc1cncnc1` [Roche-Dataset for PDE10A, Compound 878], with 0.015 µM; and `COc1cc(NC(=O)c2ccc3cc(-c4ccccc4)nn3c2)ccn1` [Roche-Dataset for PDE10A, Compound 365], with 0.144 µM.

In turn, `CCOC(=O)c1cnn(C)c1C(=O)Nc1ccn2nc(-c3cccnc3F)nc2c1` [Roche-Dataset for PDE10A, Compound 264] registered an IC50 of 0.183 µM.

Turning to `COC1CN(C(=O)c2cnn(C)c2C(=O)Nc2ccn3nc(N4CCOCC4)nc3c2)C1` [Roche-Dataset for PDE10A, Compound 348], the IC50 was 0.129 µM.

Regarding `COc1ccc2c(=O)n(C)c3cnc(-c4ccccc4Cl)n3c2c1` [Roche-Dataset for PDE10A, Compound 1048], the IC50 is 0.432 µM. Regarding `Cn1nc(-c2ccccn2)cc1NC(=O)c1cc(C(F)(F)F)ncc1Br` [Roche-Dataset for PDE10A, Compound 547], the IC50 turned out to be 10 µM. For `CCOC(=O)c1cnn(C)c1C(=O)Nc1ccn2nc(N3CCCC3)nc2c1` [Roche-Dataset for PDE10A, Compound 353] the value was 0.021 µM; for `O=C(c1nc(C2CC2)cnc1Nc1cncnc1)N1CCN(C2CCCC2)CC1` [Roche-Dataset for PDE10A, Compound 1039], 10 µM.

For `Cn1ncc(C(=O)N2CCC2)c1C(=O)Nc1ccn(C(C)(C)C)n1` [Roche-Dataset for PDE10A, Compound 1109], half-maximal inhibition (IC50) required 0.672 µM. For `CCOC(=O)c1cnn(C)c1C(=O)Nc1ccn2nc(N(C)C)nc2c1` [Roche-Dataset for PDE10A, Compound 549] the value was 0.314 µM; for `CN(C)C(=O)c1c(F)cccc1NC(=O)c1nc(C2CC2)cnc1Nc1cncnc1` [US8703768, 308], 0.00092 µM; for `Cc1c(Cl)nn2c(C)c(/C=C/c3nc(N4CCCC4)nn3C)nc2c1C` [Roche-Dataset for PDE10A, Compound 309], 0.048 µM. `COc1ccccc1-c1cn2c(n1)C[C@H](NC(=O)c1c(C(=O)N(C)C3CC3)cnn1C)CC2` [Roche-Dataset for PDE10A, Compound 278] had an IC50 of 0.013 µM.

For `COCCn1nccc1NC(=O)c1nc(C2CC2)ccc1Nc1cncnc1` [Roche-Dataset for PDE10A, Compound 868], inhibition was half-maximal at 0.043 µM (IC50). For `Cc1nc(-c2ccccc2Cl)n2c3cc(Cl)ccc3c(=O)n(C)c12` [Roche-Dataset for PDE10A, Compound 987] the value was 0.00654 µM; for `CSc1ncc(Nc2cncnc2)c(C(=O)Nc2cc(-c3ccccn3)nn2C)n1` [Roche-Dataset for PDE10A, Compound 519], 1.36 µM; for `Cc1c(Cl)cc(Cl)c2nc(CCc3nc(N4CCCC4)no3)nn12` [Roche-Dataset for PDE10A, Compound 521], 0.017 µM.

With `CN(C)c1nc(CCc2nc(-c3ccccc3)cn2C)nc2ccc(Cl)cc12` [Roche-Dataset for PDE10A, Compound 55], the IC50 worked out at 0.00325 µM. Then `Cc1ncc(C2CC2)c2nc(CCc3nc(N4CCCC4)nn3C)nn12` [Roche-Dataset for PDE10A, Compound 605], with 0.00328 µM; and `CC(C)(C)OCCCNC(=O)c1nc(C2CC2)cnc1Nc1cncnc1` [Roche-Dataset for PDE10A, Compound 968], with 0.295 µM; and `O=C(Nc1conc1-c1ccccn1)c1nc(C2CC2)ccc1Nc1cncnc1` [Roche-Dataset for PDE10A, Compound 990], with 0.015 µM. As for `Cc1ccc(CNC(=O)c2cnn(C)c2C(=O)Nc2ccn3cc(-c4ccccc4)nc3n2)nc1` [Roche-Dataset for PDE10A, Compound 862], half-maximal inhibition (IC50) required 0.322 µM.

The compound `O=C(Nc1cnc(Cl)cc1Cl)c1nc(C2CC2)ccc1Nc1cncnc1` [Roche-Dataset for PDE10A, Compound 942] yielded an IC50 of 0.00994 µM. In turn, `CN(C)C(=O)Cn1cc(NC(=O)c2nc(C3CC3)cnc2Nc2cncnc2)cn1` [Roche-Dataset for PDE10A, Compound 787] yielded a 50% inhibitory concentration (IC50) of 0.671 µM. For `Cc1cc(-n2nc(N3CCCC3)nc2CCc2nc3c(C(F)(F)F)cc(Cl)c(C)n3n2)ccn1` [Roche-Dataset for PDE10A, Compound 34] the value was 0.00107 µM; for `Cc1nc2ccccc2nc1CCc1nc(-c2ccccc2)cn1-c1ccccn1` [Roche-Dataset for PDE10A, Compound 17], 0.00182 µM; for `Cc1c(Cl)ccc2nc(/C=C/c3nc(N4CCCC4)n(C)n3)nn12` [Roche-Dataset for PDE10A, Compound 393], 0.00458 µM. Then `O=C(N[C@H]1CCN(c2ccccn2)C1)c1nc(C2CC2)ccc1Nc1cncnc1` [Roche-Dataset for PDE10A, Compound 1052], with 0.367 µM. In turn, `Cc1ncc(C)n2nc(/C=C/c3nc(N4CCN(C(=O)OC(C)(C)C)CC4)nn3C)nc12` [Roche-Dataset for PDE10A, Compound 1119] returned an IC50 of 0.402 µM. For `Cn1cc(-c2ccccc2)nc1CCc1nc2cccc(Cl)c2c(=O)[nH]1` [Roche-Dataset for PDE10A, Compound 52] the value was 0.122 µM; for `O=C(NCc1cc(F)cc(F)c1)c1nc(C2CC2)cnc1Nc1cncnc1` [Roche-Dataset for PDE10A, Compound 783], 1.06 µM. For `Cc1ncc(C)n2nc(/C=C/c3nc(N4CCNCC4)nn3C)nc12` [Roche-Dataset for PDE10A, Compound 311] the value was 1.55 µM; for `CCCn1nc(-c2ccccn2)cc1NC(=O)c1nc(C2CC2)ccc1Nc1cncnc1` [US8470820, 23], 0.00168 µM; for `CNC(=O)c1cc(OCCO)ccc1NC(=O)c1nc(C2CC2)cnc1Nc1cncnc1` [US8703768, 216], 0.00077 µM.

Compound `O=C(Nc1ccn(Cc2ccccc2)n1)c1nc(C2CC2)ccc1Nc1cncnc1` [Roche-Dataset for PDE10A, Compound 446] had an IC50 of 0.00341 µM. In turn, `O=C(NCc1cnn(-c2ccccc2)n1)c1nc(C2CC2)cnc1Nc1cncnc1` [Roche-Dataset for PDE10A, Compound 727] had an IC50 of 0.059 µM.

The compound `Cn1nc(-c2ccc3ccccc3n2)cc1NC(=O)c1c(C(=O)N2CCC2)cnn1C` [Roche-Dataset for PDE10A, Compound 468] yielded an IC50 of 0.00091 µM. Then `O=C(NCc1ccc2c(c1)CCO2)c1nc(C2CC2)cnc1Nc1cncnc1` [Roche-Dataset for PDE10A, Compound 718], with 0.148 µM; and `CC(C)(O)CNC(=O)c1cc(OCCO)ccc1NC(=O)c1nc(C2CC2)cnc1Nc1cncnc1` [US8703768, 215], with 0.00049 µM; and `O=C(Nc1cccc(C(=O)N2CCCC2)n1)c1nc(C2CC2)cnc1Nc1cncnc1` [Roche-Dataset for PDE10A, Compound 830], with 0.01 µM. For `CNC(=O)c1cc2[nH]c(-c3ccccc3)nc2cc1NC(=O)c1cc(C)n(C)n1` [Roche-Dataset for PDE10A, Compound 391] the value was 0.197 µM. For `Cc1nc(C)n2nc(/C=C/c3nc(N4CCCC4)nn3C)nc2c1C` [Roche-Dataset for PDE10A, Compound 293] the value was 0.00916 µM; for `Cc1c(Cl)cc(C(F)(F)F)c2nc(CCc3nc(I)nn3C)nn12` [Roche-Dataset for PDE10A, Compound 615], 0.123 µM. `CCOc1cc(Cl)c(C)n2nc(CCc3nc(N4CCCC4)nn3C)nc12` [Roche-Dataset for PDE10A, Compound 266] returned a concentration for half-maximal inhibition (IC50) of 0.0006 µM. For `COc1cccc(-c2cn3c(n2)C[C@H](NC(=O)c2c(C(=O)N4CCC4)cnn2C)CC3)c1` [Roche-Dataset for PDE10A, Compound 148] the value was 0.91 µM; for `CS(=O)(=O)c1ccccc1NC(=O)c1nc(C2CC2)ccc1Nc1cncnc1` [Roche-Dataset for PDE10A, Compound 1071], 0.027 µM.
